Laboratory results as given in ChEMBL document CHEMBL3244006, “Synthesis and antinociceptive activity of 7-methoxycodeine” (J Med Chem, 1978).
Calls of active or inactive are those of the source. The calls are words filed in the database; no cut-off is given here.

Key:
[1] = tested on: Mus musculus; assay: Antinociceptive activity in sc dosed mouse by Eddy hot-plate assay; type: functional
[2] = tested on: Mus musculus; assay: Antinociceptive activity in po dosed mouse by Eddy hot-plate assay; type: functional
[3] = Stability of the compound in acidic media; type: physicochemical
[4] = tested on: Mus musculus; assay: Antinociceptive activity in mouse at 100 mg/kg, po by Eddy hot-plate assay; type: functional, organism-based; parameters: dose 100 mg/kg
[5] = tested on: Mus musculus; assay: Antinociceptive activity in mouse at 100 mg/kg, sc by Eddy hot-plate assay; type: functional, organism-based; parameters: dose 100 mg/kg

SMILES | ED50 [1] [µmol/kg] | ED50 [2] [µmol/kg] | further results
COC1=C[C@H]2[C@H]3Cc4ccc(OC)c5c4[C@@]2(CCN3C)[C@@H](O5)[C@H]1O | 43.1 | 30.4 | Stability [3]: Unstable
COc1ccc2c(c1O)[C@]13CCN(C)[C@H](C2)[C@@H]1CC(=O)C(=O)C3 | 26.7 |  | Activity [4]: inactive
COc1ccc2c3c1O[C@H]1[C@@H](O)C=C[C@H]4[C@@H](C2)N(C)CC[C@@]341 [CODEINE PHOSPHATE] |  | 34 | 
COC1=C[C@H]2[C@H]3Cc4c(Br)cc(OC)c(O)c4[C@@]2(CCN3C)CC1=O |  |  | Activity [5]: inactive
CN1CC[C@]23c4c5ccc(O)c4O[C@H]2[C@@H](O)C=C[C@H]3[C@H]1C5 | 3.3 | 18.8 | 
COC1=C[C@]23CCN(C)[C@H](Cc4c(Br)cc(OC)c(O)c42)[C@@H]3CC1=O |  |  | Activity [5]: inactive
COC1=C[C@H]2[C@H]3Cc4c(Br)cc(OC)c5c4[C@@]2(CCN3C)[C@@H](O5)C1=O | 40.4 |  | 
